Eleven molecules from ChEMBL document CHEMBL1201862, “PubChem BioAssay data set” (2004) can be followed below.

The structures appear in SMILES notation.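 Assay format: 96-well plates, 48-hour exposure. GI50 marks 50% less growth.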 The source made the active and inactive calls. Rule as the data show it: active = GI50 up to about 1.1 µM and inactive = higher.

Common to all, as to experiment: NCI anticancer screen, dose series, 48 h
In assay [1] the test system is HCC 2998.
Assay [2] relates to MCF7.
Assay [3] has as its system M14.
Assay [4] has as its system Malme-3M.
In assay [5] the test system is EKVX.
The subject of assay [6] is HOP-62.
Assay [7] deals with T47D.
Assay [8] concerns 786-0.
Assay [9] relates to A498.
In assay [10] the test system is TK-10.
Assay [11] relates to SNB-75.
Assay [12] has as its system OVCAR-8.
Assay [13] deals with A549.
For assay [14], the system named is SW-620.
Assay [15] relates to SK-MEL-2.
Assay [16] deals with COLO 205.
The test system of assay [17] is UO-31.
The test system of assay [18] is MDA-N.
The test system of assay [19] is CCRF-CEM.
Assay [20] concerns HL-60.

Regarding `N=C(N)N/N=C(/c1ccccc1)c1ccc(O)cc1O`, the GI50 is 16.9 µM (inactive) in assay [1]; 30.7 µM (inactive) in [2]; 23 µM (inactive) in [3]; 22.6 µM (inactive) in assay [4]; 22.2 µM (inactive) in [5]; 32 µM (inactive) in [6]. The GI50 is 45.3 µM (inactive) in assay [7]; 29.2 µM (inactive) in [8]; 21.9 µM (inactive) in [9]; 31.6 µM (inactive) in assay [10]; 49 µM (inactive) in assay [11]; 24.6 µM (inactive) in assay [12]. For the same molecule, the GI50 in assay [13] is 38.1 µM (inactive); in assay [14], 36.7 µM (inactive); in assay [15], 45.7 µM (inactive); in assay [16], 17.5 µM (inactive); in assay [17], 46.1 µM (inactive); in assay [18] it was 11.7 µM (inactive).
For the molecule `C=CCCCCCCC#CCCCCCCCCCC[C@@H]1C(=O)O[C@H](C)[C@@H]1O.CCCCCCCCC#CCCCCCCCCCC[C@@H]1C(=O)O[C@H](C)[C@@H]1O`, the GI50 was 23.6 µM (inactive) in assay [1]; 15.4 µM (inactive) in assay [2]; 17.3 µM (inactive) in assay [3]; 17.5 µM (inactive) in [4]; 16.8 µM (inactive) in [5]; 16 µM (inactive) in assay [6]. For the same molecule, the GI50 is 14.9 µM (inactive) in [7]; 15.8 µM (inactive) in [8]; 55.3 µM (inactive) in assay [9]; 15.7 µM (inactive) in assay [10]; 16.7 µM (inactive) in assay [11]; 15.3 µM (inactive) in [12]. Further, the GI50 in assay [13] is 14.1 µM (inactive); in [14], 15.2 µM (inactive); in assay [15] it was 14.7 µM (inactive); in assay [16], 24.8 µM (inactive); in assay [17], 15.6 µM (inactive); in [18], 23.2 µM (inactive).
As to `FC(F)(Sc1ccccn1)c1nc2ccccc2o1`, the GI50 was > 100 µM (inactive) in assay [1]; 65.2 µM (inactive) in [19]; 55.2 µM (inactive) in assay [2]; > 100 µM (inactive) in [3]; > 100 µM (inactive) in assay [4]; > 100 µM (inactive) in assay [6]. The GI50 in [7] was > 100 µM (inactive); in assay [8] it was > 100 µM (inactive); in assay [9], 38.7 µM (inactive); in assay [10], > 100 µM (inactive); in assay [12], > 100 µM (inactive); in assay [13], > 100 µM (inactive). In addition, the GI50 is > 100 µM (inactive) in assay [14]; > 100 µM (inactive) in [15]; > 100 µM (inactive) in assay [16]; 69.7 µM (inactive) in assay [17]; > 100 µM (inactive) in assay [18].
As to `N/C(=N\N=C\c1nc2ccccc2o1)c1cnccn1`, the GI50 in [20] was 49.9 µM (inactive); in assay [19], > 100 µM (inactive); in assay [2], > 100 µM (inactive); in assay [3], > 100 µM (inactive); in assay [4] it was 1.71 µM (inactive); in assay [5] it was > 100 µM (inactive). In addition, the GI50 in assay [6] was 43.2 µM (inactive); in [7], 51.4 µM (inactive); in assay [8] it was 66.7 µM (inactive); in assay [9] it was > 100 µM (inactive); in assay [10], 30.7 µM (inactive); in assay [11] it was 16.4 µM (inactive). Also, the GI50 in assay [12] is > 100 µM (inactive); in [13], > 100 µM (inactive); in assay [14], > 100 µM (inactive); in [15] it was 80.7 µM (inactive); in assay [16], > 100 µM (inactive); in assay [17] it was > 100 µM (inactive). For the same molecule, the GI50 in assay [18] is > 100 µM (inactive).
Consider `CN1C(=O)C(c2c[nH]c3ccccc23)N(C)C(=O)C1c1c[nH]c2ccccc12` (stereo unspecified), for which the GI50 in assay [1], in [20], in assay [19], in assay [2], in assay [3] and in assay [4] was > 100 µM (inactive) throughout. Further, the GI50 in [5] was > 100 µM (inactive); in [6] it was 63.4 µM (inactive); in assay [7], > 100 µM (inactive); in [8] it was 53.2 µM (inactive); in assay [10] it was > 100 µM (inactive); in [11], 33.8 µM (inactive). For the same molecule, the GI50 in [12], in assay [13], in [14], in assay [16], in assay [17] and in [18] was > 100 µM (inactive) throughout.
For the molecule `N#CCCN(CCC#N)c1ccc(C(/N=N/c2ccc(Cl)cc2)=N\c2ccccc2)cc1`, the GI50 in assay [1] was 6.55 µM (inactive); in [2], 11.7 µM (inactive); in assay [3], 12.9 µM (inactive); in [5] it was 12.1 µM (inactive); in assay [6], 13.2 µM (inactive); in assay [7] it was 8.55 µM (inactive). Also, the GI50 in assay [8] is 14.9 µM (inactive); in [9], 17.6 µM (inactive); in assay [10] it was 15.5 µM (inactive); in assay [11] it was 17.4 µM (inactive); in [12], 15.1 µM (inactive); in assay [13], 14.1 µM (inactive). Moreover, the GI50 in assay [14] was 18 µM (inactive); in assay [15], 2.09 µM (inactive); in assay [16] it was 3.2 µM (inactive); in assay [17], 8.91 µM (inactive); in assay [18], 10.9 µM (inactive).
`CCC1CC2CN3CCc4c([nH]c5c(-c6c(OC)ccc7c8c([nH]c67)[C@]6(C(=O)OC)CC7CC(CC)C6N(CC8)C7)c(O)ccc45)[C@](C(=O)OC)(C2)C13` (stereo partly specified): the GI50 in assay [1] was 13.3 µM (inactive); in assay [19], 15.3 µM (inactive); in [2], 6.82 µM (inactive); in assay [3] it was 24.9 µM (inactive); in assay [4], > 10 µM (inactive); in [5], 17.1 µM (inactive). The GI50 in assay [6] was 15.2 µM (inactive); in assay [7] it was 11.1 µM (inactive); in assay [8], 12.6 µM (inactive); in assay [9], 15.1 µM (inactive); in [10], 15.2 µM (inactive); in [11], 14.8 µM (inactive). Also, the GI50 in [12] is 20.5 µM (inactive); in assay [13], 17.6 µM (inactive); in assay [14] it was 12.4 µM (inactive); in assay [15], 20.9 µM (inactive); in assay [16], 11.4 µM (inactive); in [17], 12.7 µM (inactive). In addition, in assay [18], the GI50 was 12.2 µM (inactive).
With `COC1(OC)CCc2c(sc3ncnc(Nc4cccc(Br)c4)c23)C1`, the GI50 in assay [1] is > 100 µM (inactive); in assay [2] it was 40.5 µM (inactive); in [3], 44.4 µM (inactive); in [4] it was 41.5 µM (inactive); in [5], 11.2 µM (inactive); in [6], 74.5 µM (inactive). Also, the GI50 in [7] was 23.1 µM (inactive); in assay [8], 25.1 µM (inactive); in [9], > 100 µM (inactive); in assay [10], 10.6 µM (inactive); in [11], 26.5 µM (inactive); in assay [12], 34.6 µM (inactive). In addition, the GI50 in [13] was 25.9 µM (inactive); in [14], 21.7 µM (inactive); in assay [15], > 100 µM (inactive); in assay [16] it was 35.4 µM (inactive); in assay [17] it was 3.22 µM (inactive); in [18] it was 35.4 µM (inactive).
`N#CCOc1cccc(C2(N3CC=CCC3)CCCCC2)c1`: the GI50 was 83.2 µM (inactive) in assay [20]; 42.3 µM (inactive) in [19]; > 100 µM (inactive) in [2]; > 100 µM (inactive) in assay [3]; > 100 µM (inactive) in assay [4]; > 100 µM (inactive) in assay [5]. Besides, the GI50 in assay [6] was > 100 µM (inactive); in assay [7], > 100 µM (inactive); in assay [8] it was > 100 µM (inactive); in assay [9] it was > 100 µM (inactive); in assay [10], > 100 µM (inactive); in assay [12], 86.9 µM (inactive). Besides, the GI50 in assay [13] was > 100 µM (inactive); in [14] it was 94 µM (inactive); in assay [15], > 100 µM (inactive); in [16], > 100 µM (inactive); in assay [17] it was > 100 µM (inactive); in assay [18] it was > 100 µM (inactive).
Take `NCC(O)CNCC/C=C\C/C=C\C/C=C\C/C=C\C/C=C\C/C=C\CCCCC/C=C\CCNCC(O)CN` (stereo unspecified): the GI50 in [20] is 0.453 µM (active); in [2], 2.15 µM (inactive); in assay [3], 1.94 µM (inactive); in [4] it was 1.94 µM (inactive); in assay [5], 0.731 µM (active); in assay [6], 1.97 µM (inactive). The GI50 in assay [7] is 2 µM (inactive); in assay [8], 1.69 µM (inactive); in [9] it was 1.83 µM (inactive); in [10], 1.57 µM (inactive); in [11], 1.73 µM (inactive); in assay [12], 1.78 µM (inactive). Also, the GI50 is 1.85 µM (inactive) in assay [13]; 1.78 µM (inactive) in assay [14]; 1.81 µM (inactive) in [15]; 1.96 µM (inactive) in assay [16]; 1.9 µM (inactive) in assay [17]; 1.67 µM (inactive) in assay [18].
For `CC(=O)OCC1OC(OCC2OC(N3C(=S)N[C@H]([C@@H](O)[C@H](O)[C@H](O)CO)[C@H]3O)C(OC(C)=O)C(OC(C)=O)C2OC(C)=O)C(OC(C)=O)C(OC(C)=O)C1OC(C)=O` (stereo partly specified), the GI50 in assay [1] was > 100 µM (inactive); in assay [2], > 100 µM (inactive); in assay [3], > 100 µM (inactive); in assay [4], > 100 µM (inactive); in assay [6] it was > 100 µM (inactive); in [7], 61.8 µM (inactive). Also, the GI50 in assay [8] was > 100 µM (inactive); in assay [9], > 100 µM (inactive); in assay [10], > 100 µM (inactive); in assay [12], 43.9 µM (inactive); in [13], > 100 µM (inactive); in assay [14], > 100 µM (inactive). The GI50 in assay [15], in assay [16], in assay [17] and in assay [18] was > 100 µM (inactive) throughout.
